# Measured values published in PubChem BioAssay (NCI).
# Where “and” joins values, the source holds several entries; their conditions need not be identical. Identical values can stand only once.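 Interpolation was linear, between the two tested concentrations surrounding the appropriate level; five concentrations were tested over 48 hours in 96-well plates. GI50: concentration for 50% inhibition of growth. Definition used: TGI = concentration required for complete inhibition of growth.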
# Key:
# Assay in all cases: NCI tumour cell line growth inhibition, 48 h
# [1] = system: RPMI-8226 leukemia
# [2] = system: A549 NSCLC
# [3] = system: DU-145 prostate
# [4] = system: OVCAR-8 ovarian
# [5] = system: MALME-3M melanoma
# [6] = system: MDA-MB-231 breast
# [7] = system: SW-620 colon
# [8] = system: NCI-H460 lung
# [9] = system: OVCAR-5 ovarian
# [10] = system: UO-31 renal
SMILES,GI50 [1],GI50 [2],TGI [2],GI50 [3],TGI [3],GI50 [4],GI50 [5],TGI [5],GI50 [6],TGI [6],GI50 [7],TGI [7],GI50 [8],GI50 [9],TGI [9],GI50 [10],TGI [10],TGI [1],TGI [4],TGI [8]
CC(C)c1cccc(O)c(=O)c1,0.826 µg/mL,2.42 µg/mL,> 75 µg/mL and > 74.5 µM,2.1 µg/mL,24.7 µg/mL,2 µg/mL,9.77 µg/mL,48.3 µg/mL and > 81.2 µM,6.73 µg/mL,> 75 µg/mL,3.56 µg/mL,> 75 µg/mL and > 100 µM,0.31 µg/mL,75 µg/mL,> 75 µg/mL and > 100 µM,2.58 µg/mL,35.5 µg/mL and > 71.1 µM,,,
CC(C)=CC(=O)N[C@H]1CC[C@]2(C)C3CC[C@]4(C)C(C(C)N(C)C)=CCC4C3CCC2[C@H]1O (stereo partly drawn),2.41 µM,5.92 µM,22.9 µM,8.68 µM,21.4 µM,13.9 µM,1.89 µM,4.23 µM,3.34 µM,9.79 µM,1.97 µM,4.55 µM,1.87 µM,10.9 µM,25.2 µM,1.88 µM,4.51 µM,9.3 µM,> 51.8 µM,3.75 µM
O=C(Nc1ccc(F)cc1)Nc1ccc(Br)c(C(F)(F)F)c1,1.03 µM,2.34 µM,12.8 µM,3.27 µM,13.4 µM,2.95 µM,2.12 µM,5.8 µM,2.18 µM,5.33 µM,3.22 µM,12.7 µM,2.53 µM,2.55 µM,10.8 µM,2.35 µM,10.6 µM,4.96 µM,15.2 µM,10.4 µM
O=C(c1ccco1)c1c(C(F)(F)F)n([O-])c2cc(C(F)(F)F)ccc2[n+]1=O,0.455 µM,0.445 µM,1.02 µM,0.549 µM,1.21 µM,0.688 µM,1.49 µM,3.43 µM,1.08 µM,2.67 µM,0.498 µM,1.1 µM,0.537 µM,1.86 µM,3.39 µM,0.517 µM,1.02 µM,1.19 µM,,1.8 µM
COC(=O)Nc1nc2ccc(C(=O)c3ccccc3)cc2[nH]1,0.903 µM and 0.297 µM,0.605 µM and 0.534 µM,> 100 µM,1.06 µM and 0.259 µM,22.6 µM and 3 µM,0.757 µM and 0.486 µM,0.559 µM and 0.201 µM,> 100 µM,1.05 µM and 1.25 µM,> 100 µM,0.41 µM and 0.259 µM,> 100 µM,0.397 µM and 0.33 µM,5.38 µM and 2.5 µM,> 100 µM,,> 100 µM,> 100 µM and 15 µM,> 100 µM,
C=C1C(=O)O[C@H]2[C@H]1CC/C(COC(=O)CCCc1c[nH]c3ccccc13)=C\CC[C@@]1(C)O[C@@H]21,2.31 µM,5.47 µM,22.4 µM,1.67 µM,3.18 µM,3.38 µM,1.79 µM,3.56 µM,1.78 µM,3.7 µM,1.84 µM,4.36 µM,4.54 µM,1.89 µM,3.98 µM,1.41 µM,2.73 µM,6.09 µM,11.2 µM,19.2 µM
C=C1C(=O)O[C@H]2[C@H]1CC/C(Cn1cc(-c3ccc(F)cc3)nn1)=C\CC[C@@]1(C)O[C@@H]21,1.41 µM,3.37 µM,12.9 µM,0.69 µM,1.99 µM,1.66 µM,1.4 µM,2.97 µM,1.22 µM,2.65 µM,0.423 µM,1.54 µM,3.66 µM,1.48 µM,3.13 µM,1.22 µM,2.51 µM,4.92 µM,3.85 µM,14 µM
Cc1c(N)nc(C(CC(N)=O)NCC(N)C(N)=O)nc1C(=O)NC(C(=O)NC(C)C(O)C(C)C(=O)NC(C(=O)NCCc1nc(-c2nc(C(=O)NCCCNC(C)c3ccccc3)cs2)cs1)C(C)O)C(OC1OC(CO)C(O)C(O)C1OC1OC(CO)C(O)C(OC(N)=O)C1O)c1cnc[nH]1 (stereo not drawn),50.4 µM,0.63 µM,50 µM and > 100 µM,10.5 µM,39.2 µM and 55 µM,,1.84 µM,37.2 µM and > 100 µM,> 100 µM,> 100 µM,24.8 µM,50 µM and > 100 µM,0.391 µM,2.21 µM,47.2 µM and > 100 µM,2.9 µM,,20.3 µM and > 100 µM,50 µM and > 100 µM,
CO[C@H]1C[C@](C)(O)Cc2cc3c(c(O)c21)C(=O)c1c(O)cc2c(c1C3=O)O[C@@H]1O[C@@]2(C)[C@H](O)[C@@H](N(C)C)[C@@H]1O,0.667 µM and 0.494 µM,0.139 µM,1.61 µM and 3.02 µM,,7.14 µM,1.07 µM,,3.44 µM and 13.3 µM,,8 µM,0.847 µM,3.87 µM and 7.69 µM,0.035 µM,1.37 µM,3.3 µM and 15 µM,1.33 µM,2.85 µM and 7.08 µM,3.66 µM and 10.9 µM,3.36 µM and 4.97 µM,1.47 µM and 2.1 µM
C=C1C(=O)O[C@H]2[C@H]1CC/C(COC(=O)OC/C1=C/CC[C@@]3(C)O[C@H]3[C@H]3OC(=O)[C@@H](CN(C)C)[C@@H]3CC1)=C\CC[C@@]1(C)O[C@@H]21,0.372 µM,10.8 µM,24.3 µM,1.65 µM,3.32 µM,2.31 µM,1.26 µM,3.12 µM,1.49 µM,3.07 µM,0.445 µM,1.85 µM,5.38 µM,2.13 µM,5.21 µM,1.04 µM,2.25 µM,1.94 µM,10.2 µM,19.9 µM
Nc1ccc(COC(O)CN2CCCCC2)cc1[N+](=O)[O-] (stereo not drawn),,,> 100 µM,,> 100 µM,,,> 100 µM,,> 100 µM,,> 100 µM,,,> 100 µM,,> 100 µM,> 100 µM,> 100 µM,> 100 µM
C=C1SC(=Nc2ccccc2Cl)N(C(=O)c2sc3ccccc3c2Cl)C12CCCCC2,3.81 µM,4.31 µM,> 100 µM,6.2 µM,> 100 µM,6.62 µM,29.2 µM,> 100 µM,4.9 µM,> 100 µM,5.87 µM,> 100 µM,4.71 µM,35.9 µM,> 100 µM,2.33 µM,> 100 µM,98.2 µM,> 100 µM,> 100 µM
Cc1[nH]c(N)nc(=S)c1CCC(=O)O,,,> 100 µM,,> 100 µM,,,> 100 µM,,> 100 µM,,> 100 µM,,,> 100 µM,,> 100 µM,> 100 µM,> 100 µM,> 100 µM
C[n+]1c2ccccc2nc2ccccc21,0.343 µM,2.93 µM,19.9 µM,1.57 µM,3.12 µM,2.61 µM,1.22 µM,2.7 µM,0.359 µM,2.12 µM,1.37 µM,3.26 µM,2.33 µM,1.66 µM,3.56 µM,2.39 µM,7.6 µM,16.3 µM,20.6 µM,11.2 µM
CCCCCCCCCCCCCCCCOP(=O)([O-])OCC[N+](C)(C)C,0.39 µM,1.6 µM,,4.01 µM,14.7 µM and 39.9 µM,3.31 µM,3.1 µM,12.6 µM and 52.7 µM,1.19 µM,,2.08 µM,13.9 µM and 57 µM,0.518 µM,0.735 µM,4.04 µM and 24.9 µM,1.47 µM,,,11.8 µM and 48.3 µM,
Nc1nc2cc(CC[C@H]3C[C@@H](n4ccc5c(N)ncnc54)[C@H](O)[C@@H]3O)ccc2cc1Br,4.92 µM,12.4 µM,34.3 µM,13.1 µM,27 µM,7.73 µM,7.42 µM,21.5 µM,11.1 µM,24.4 µM,13.3 µM,27.7 µM,10.9 µM,14.2 µM,30.1 µM,2.92 µM,18 µM,57.2 µM,34.1 µM,26.5 µM
CCCCCCCC/C=C1\CCC(CN2CCOCC2)C1=O (stereo not drawn),,,24.7 µM,,17.9 µM,,,24.7 µM,,4.42 µM,,8.39 µM,,,36.5 µM,,16.6 µM,4.19 µM,13.8 µM,39.4 µM
O=C(/C=C1\C(=O)N(Cc2ccccc2)c2ccccc21)c1ccc(OCCN2CCCCC2)cc1,2.07 µM,8.42 µM,21.6 µM,2.26 µM,5.05 µM,2.13 µM,1.71 µM,3.39 µM,1.92 µM,3.88 µM,1.7 µM,3.3 µM,3.57 µM,1.76 µM,3.6 µM,1.54 µM,2.87 µM,4.72 µM,4.16 µM,11.9 µM
